Columns and labels:
[1] = system: 3×3 ILL; experiment: 2DCS selection of microarray-immobilized compounds with 32P-labeled 3×3 ILL, Hit-StARTS analysis of RNA-seq; assay type: binding; conditions: Zobs >4
Protocol: The interaction landscape for the ten representative DEL compounds emerging from the FACS screen were then defined by 2DCS (22). In 2DCS, small molecules are site-specifically conjugated to a microarray surface and then probed for binding to an RNA library under highly stringent conditions (FIGS. 2-B & S6). That is, the array is co-incubated with a radioactively labeled RNA library and an excess of competitor oligonucleotides that mimic regions common to all library members. […] To enable site-specific immobilization of compounds 1-10, a C-terminal alkyne handle was installed for CuAAC click (30) coupling to azide-displaying array surfaces. Installation of the alkyne was accomplished by coupling of bromoacetic acid onto rink amide resin followed by nucleophilic displacement with propargylamine prior to the synthesis of the SPDEL compounds (FIG. 2A).
All ten compounds bound to the 3×3 ILL under the highly stringent conditions described above, almost all dose-dependently (FIG. 2B). The RNAs bound to each small molecule were harvested, reverse transcribed into DNA, and sequenced by RNA-seq. The resulting data set was statistically analyzed by using High Throughput Structure-Activity Relationships Through Sequencing (Hit-StARTS) (31) in which the relative frequency of each selected RNA is compared to the frequency of that RNA in the starting library (pooled population comparison). (31) The statistical significance of the enrichment of selected RNAs is quantified by Zobs, which correlates with affinity and selectivity. (31) Here, a cut-off of Zobs >4 was employed, which was empirically determined from measured affinities via evaluation of compound 9 binding with potential RNA motifs extracted from the 2DCS (FIGS. 2-B, 13, & 14). […] This cut-off afforded, on average, 60±40 (range: 6-155) preferred, or privileged, RNA 3D folds for each compound. Compound 6 bound to largest number of RNA targets (n=155) while compound 9 bound the fewest (n=6) (FIG. 14). […]

[2] = system: fully paired RNA (loop mutated to a base pair); experiment: Binding affinity by MST, Cy5-labeled fully paired RNA
Protocol: (§1) Binding affinity measurements: Binding affinities were measured by microscale thermophoresis (MST), performed on a Monolith NT.115 system (NanoTemper Technologies) with Cy5-labeled RNAs. These RNAs include: the 5′GAG/3′CCC SEQ ID NO: 16 loop at pri-miR-27a's Drosha site (Sequence:/5′-Cy5/rCrUrGrArGrGrUrGrArArArCrArUrCrCrCrArG SEQ ID NO: 17; Dharmacon), a related internal loop not selected by 9. 5′CAG/3′GCC SEQ ID NO: 17 loop (Sequence:/5′-Cy5/rCrUrCrArGrGrUrGrArArArCrArUrCrCrGrArG SEQ ID NO: 16; Dharmacon), and an RNA in which the loop is mutated to a base pair (Sequence:/5-Cy5/rCrUrGrArGrGrUrGrArArArCrArUrCrUrCrArG SEQ ID NO: 16; Dharmacon).
(§2) Briefly, Cy5-labeled RNA (10 nM) was prepared in 1× Binding Buffer and folded by heating at 60° C. for 5 min and then slowly cooling to room temperature. After cooling, Tween-20 was added to a final concentration of 0.1% (v/v). Compound solutions were prepared separately in 20 μL of 1× Binding Buffer at a final concentration of 5 μM (1% (v/v) DMSO), followed by 1:1 serial dilutions in 1× Binding Buffer. RNA and compound solutions were then mixed 1:1 by volume to a total of 20 μL.
(§3) Samples were incubated for 20 min at room temperature and then loaded into premium capillaries (NanoTemper Tech, Cat #MO-K025). The following parameters were used for MST measurements: 5-20% LED power (adjusted to keep fluorescence intensity between 2000 and 8000), 80% MST power, Laser-On time=30 s, Laser-Off time=25 s. The resulting data were analyzed by calculating the change in thermophoresis as a function of compound concentration and fitted by Equation 1, a one site binding model, in NanoTemper Tech's MST analysis software to yield the dissociation constant (Kd):
(§4) Where F is the concentration of fluorescently labeled RNA; unbound and bound refer to the thermophoresis signal at completely unbound and bound state of RNA, respectively; c is the concentration of the compound; f (c) is the thermophoresis signal at compound concentration of c; and Kd is the dissociation constant.

[3] = system: 5′CAG/3′GCC loop; experiment: Binding affinity by MST, Cy5-labeled mutated loop RNA; design: species or system human; conditions: mutated loop 5′CAG/3′GCC
Protocol: as §1
Briefly, Cy5-labeled RNA (10 nM) was prepared in 1× Binding Buffer and folded by heating at 60° C. for 5 min and then slowly cooling to room temperature. […]
as §3, with “(Kd): […]” for “(Kd):”

[4] = system: 5′GAG/3′CCC loop at pri-miR-27a's Drosha site; experiment: Binding affinity by microscale thermophoresis (MST), Cy5-labeled RNA; design: species or system human
Protocol: as §1, §2, §3, §4

[5] = system: pri-miR-27a; experiment: RT-qPCR of pri- and mature miR-27a in MDA-MB-231 TNBC cells; assay type: cell-based, human; conditions: MDA-MB-231, RT-qPCR
Protocol: Cell lines. Compounds were tested in MDA-MB-231 TNBC cells (HTB-26, ATCC), LNCaP metastatic prostate cancer cells (gifted from Junli Luo lab), MCF-7 (HTB-22, ATCC) breast cancer cells, HeLa cervical adenocarcinoma cells (CCL-2, ATCC), and MCF-10a, a model of healthy breast epithelial cells (CRL-10317, ATCC).
Cell culture and compound treatment. All cells were maintained at 37° C. with 5% CO2. MDA-MB-231 and LNCaP cells were cultured in RPMI 1640 medium with L-glutamine & 25 mM HEPES (Corning) supplemented with 10% (v/v) fetal bovine serum (FBS; Sigma) and 1× (v/v) Antibiotic-Antimycotic solution (Corning). MCF-7 and HeLa cells were cultured in DMEM medium with 4.5 g/L glucose (Corning), supplemented with 10% FBS, 1× (v/v) Glutagro (Corning), and 1× (v/v) Antibiotic-Antimycotic solution. MCF10a cells were cultured in DMEM/F12 50/50 with L-glutamine & 15 mM HEPES (Corning), supplemented with 10% FBS, 20 ng/mL human epidermal growth factor (Pepro Tech Inc.), […] hydrocortisone (Pfaltz & Bauer), 100 ng/mL cholera toxin (Sigma-Aldrich), 10 μg/mL insulin (Sigma-Aldrich), and 1× (v/v) Antibiotic-Antimycotic solution.
MCF-10a cells were transfected with plasmids to express pri-miR-27a and mutant pri-miR-27a in 12- or 24-well plates with Lipofectamine 2000 per the manufacturer's protocol. For treatment of compounds, stocks were diluted in growth medium and added to cells for 48 h. The miRCURY miR-27a LNA inhibitor (QIAGEN, Cat #339121) was used as a positive control by diluting in growth medium to a final concentration of 1 nM. The miRCURY LNA Negative Control (QIAGEN, Cat #YI00199007-DDA) was used as a negative control, which has also diluted in growth medium to a final concentration of 1 nM.
Analysis of mRNA abundance: Each cell line was grown as a monolayer in 12- or 24-well plates and treated as described in “Cell culture and compound treatment”. After 48 h, the cells were lysed, and total RNA was harvested using a Zymo Quick RNA Miniprep Kit per the manufacturer's protocol. To measure the abundance of mature miRNAs, approximately 250 ng of total RNA was reverse transcribed using the High Flex Buffer provided in a miScript II RT Kit (Qiagen) per the manufacturer's protocol (10 μL total reaction volume). For pri-miRNAs and mRNA, approximately 300 ng of total RNA was reverse transcribed using a qScript cDNA synthesis kit (10 μL total reaction volume, Quanta BioSciences). For all types of RNAs, 2 μL of the RT reaction was used for qPCR using SYBR Green Master Mix and a QuantStudio™ 5 Real-Time PCR System. Relative abundance of mature miRNAs was calculated by normalizing to RNU6, and relative abundance for pri-miRNAs and mRNAs was calculated by normalizing to 18S ribosomal RNA, using the […]. (12)

Row | SMILES | number of RNA motifs bound that are unique to the compound [1] | saturable binding [2] | further results
1 | C#CCN(CC(N)=O)C(=O)C(CC(C)C)N1CC[C@H](NC(=O)[C@@H]2C[C@@H](N)CN2C(=O)c2c[nH]c3ccc(Cl)cc23)C1=O (some centres unmarked) [Compound 4] | 2 | – | –
2 | C#CCN(CC(N)=O)C(=O)C[C@H](Cc1c[nH]c2ccccc12)NC(=O)[C@@H]1C[C@@H](NC(=O)Cn2c(=O)[nH]c3ccccc3c2=O)CN1 [Compound 10] | – | binds to none of the three RNAs | binding [3]: binds to none of the three RNAs; binding [4]: binds to none of the three RNAs; inhibition of miR-27a (comparison of 5, 7, 9, 10) [5]: inactive
3 | C#CCN(CC(N)=O)C(=O)C(CC(C)C)N1CC[C@H](NC(=O)[C@@H]2C[C@H](N)CN2C(=O)c2c[nH]c3ccc(Cl)cc23)C1=O (some centres unmarked) [Compound 3] | 41 | – | –
4 | C#CCN(CC(N)=O)C(=O)C1CCN1C(=O)C1CC(N)CN1C(=O)c1ccccc1C(=O)N1CCOCC1 (centres unmarked) [Compound 5] | – | Saturable binding was not observed | Kd [4]: 700 ± 100 nM

— patent US20250051762A1, “PLATFORM USING DNA-ENCODED SMALL MOLECULE LIBRARIES AND RNA SELECTION TO DESIGN SMALL MOLECULES THAT TARGET RNA” (University of Florida Research Foundation, Incorporated, priority 2021, published 2025)
